The record followed here is ChEMBL document CHEMBL3046834, “MODULATION OF FILARIAL GLUTATHIONE-S-TRANSFERASE(S) ACTIVITY: A POSSIBILITY TOWARDS THE SYNTHESIS OF NEW CLASSES OF ANTIFILARIAL AGENTS” (Med Chem Res, 2004).

The structures appear in SMILES notation. The source made the active and inactive calls. The calls are words filed in the database; no cut-off is given here.

The nature of data set [1]: Stimulation of GST in Mus musculus (mouse) liver using CDNB as substrate at 100 uM after 10 min by spectrophotometric analysis relative to control. The data set is classed as ADME, tissue-based.
In data set [2] the test system is Brugia malayi. Briefly: Antifilarial activity against Brugia malayi isolated from jird assessed as motility at 100 uM after 24 hr by dissecting microscopy. The data set is classed as functional, organism-based.
Data set [3] has as its system GST (glutathione S-transferase). Briefly: Inhibition of GST in Mus musculus (mouse) liver using CDNB as substrate at 100 uM after 10 min by spectrophotometric analysis relative to control. Type of data set: tissue-based. As to conditions: probe CDNB.
Data set [4] concerns Brugia malayi. Briefly: Antifilarial activity against Brugia malayi isolated from jird assessed as inhibition of MTT reduction at 100 uM after 1 hr. Type of data set: functional. A general note: Formazan colour is commonly taken as a measure of viable cells.

In data set [1], `CCCCN1C(=S)N(c2cccc(Cl)c2)C(=O)CC1[C@H]1O[C@@H]2OC(C)(C)O[C@@H]2[C@H]1OC` (stereo not given in full) gave an Activity of 21%. The result in the data set on Brugia malayi [2] was Active.
Regarding `CO[C@@H]1[C@H]2OC(C)(C)O[C@H]2O[C@@H]1C1CC(=O)N(c2cccc(C#N)c2)C(=O)N1Cc1ccccc1` (stereo not given in full), the result with Brugia malayi [2] was inactive. The inhibition – broadly, the share of the control response that was lost under treatment – at 10 min, 100 µM in data set [3] came out at 32%.
For `CO[C@@H]1[C@H]2OC(C)(C)O[C@H]2O[C@@H]1C1CC(=O)N(c2cccc(C#N)c2)C(=O)N1Cc1ccc(Br)cc1` (stereo not given in full), the outcome in the data set on Brugia malayi [2] was inactive. Besides, in the data set with Brugia malayi [4], the inhibition at 100 µM worked out at 37%. In data set [3], this compound had an inhibition at 10 min, 100 µM of 19%.
For `COc1ccc(CN2C(=O)N(c3cccc(C(C)=O)c3)C(=O)CC2[C@H]2O[C@@H]3OC(C)(C)O[C@@H]3[C@H]2OC)cc1` (stereo not given in full), in that order: “inactive”, 59% and 41%.
As for `Cc1cc(N2C(=O)CC([C@H]3O[C@@H]4OC(C)(C)O[C@@H]4[C@H]3OCc3ccccc3)N(Cc3ccc(Br)cc3)C2=O)ccc1Cl` (stereo not given in full), in the data set on Brugia malayi [2], the outcome was Active.
On to `CO[C@@H]1[C@H]2OC(C)(C)O[C@H]2O[C@@H]1C1CC(=O)N(Cc2ccccc2)C(=O)N1Cc1ccccc1` (stereo not given in full), for which the outcome in the data set on Brugia malayi [2] was inactive.
Consider `CO[C@@H]1[C@H]2OC(C)(C)O[C@H]2O[C@@H]1C1CC(=O)N(c2ccc(Cl)c(C)c2)C(=O)N1Cc1ccc(Br)cc1` (stereo not given in full), for which, in the data set with Brugia malayi [2], the result was inactive. Besides, in the data set with Brugia malayi [4], the inhibition at 100 µM was determined as 45%.
For `CO[C@@H]1[C@H]2OC(C)(C)O[C@H]2O[C@@H]1C1CC(=O)N(c2ccc(F)cc2)C(=O)N1c1ccco1` (stereo not given in full), in that order: “inactive” and 70%.
`CCOC(=O)CC(NCCCCCCCNC(CC(=O)OCC)C1O[C@@H]2OC(C)(C)O[C@@H]2[C@H]1OCc1ccccc1)C1O[C@H]2OC(C)(C)O[C@H]2[C@@H]1OCc1ccccc1` (stereo not given in full): in the data set with Brugia malayi [2], the result was Active.
Regarding `CCOC(=O)CC(NC(=O)[C@@H](N)C(C)C)C1O[C@H]2OC(C)(C)O[C@H]2[C@@H]1OC` (stereo not given in full), in data set [1], the Activity is 20%. Further, in the data set on Brugia malayi [2], the outcome was Active.
Turning to `COc1ccc(CN2C(=O)N(Cc3ccccc3)C(=O)CC2[C@H]2O[C@@H]3OC(C)(C)O[C@@H]3[C@H]2OCc2ccccc2)cc1` (stereo not given in full), in the data set on Brugia malayi [2], the result was inactive.
Regarding `CCCCc1ccc(N2C(=O)CC([C@H]3O[C@@H]4OC(C)(C)O[C@@H]4[C@H]3OC)N(c3ccco3)C2=O)cc1` (stereo not given in full), the outcome with Brugia malayi [2] was inactive. In addition, the inhibition at 100 µM in the data set on Brugia malayi [4] turned out to be 57%.
Turning to `CCCCN1C(=S)N(c2ccccc2Cl)C(=O)CC1[C@H]1O[C@@H]2OC(C)(C)O[C@@H]2[C@H]1OC` (stereo not given in full), in data set [1], the Activity came out at 64%. Moreover, the outcome in the data set on Brugia malayi [2] was inactive.
The compound `CO[C@@H]1[C@H]2OC(C)(C)O[C@H]2O[C@@H]1C1CC(=O)N(Cc2ccccc2)C(=O)N1Cc1ccc(Br)cc1` (stereo not given in full) registered an Activity in data set [1] of 41%. For the same compound, the result in the data set with Brugia malayi [2] was Active.
As for `CC1(C)O[C@H]2O[C@H](C3CC(=O)N(Cc4ccccc4)C(=O)N3Cc3ccc(Br)cc3)[C@H](OCc3ccccc3)[C@H]2O1` (stereo not given in full), the outcome with Brugia malayi [2] was inactive. Also, the inhibition at 100 µM in the data set with Brugia malayi [4] is 24%.
With `CC1(C)O[C@@H]2OC(CNCCCCCCCNCC3O[C@@H]4OC(C)(C)O[C@@H]4[C@H]3OCc3ccccc3)[C@@H](OCc3ccccc3)[C@@H]2O1` (stereo not given in full), in the data set with Brugia malayi [2], the outcome was inactive.
For the compound `CCCCc1ccc(N2C(=O)CC([C@H]3O[C@@H]4OC(C)(C)O[C@@H]4[C@H]3OC)N(Cc3ccccc3)C2=O)cc1` (stereo not given in full), the outcome in the data set on Brugia malayi [2] was inactive. The inhibition at 100 µM in the data set on Brugia malayi [4] is 76%. The inhibition at 10 min, 100 µM in data set [3] came out at 13%.
Turning to `CCCCCCCCCCCCNC(CC(=O)NO)C1O[C@H]2OC(C)(C)O[C@H]2[C@@H]1OCc1ccccc1` (stereo not given in full), the Activity in data set [1] is listed as 57%. Besides, in the data set on Brugia malayi [2], the outcome was Active. For the same compound, the inhibition at 100 µM with Brugia malayi [4] was determined as 98%.
As for `CO[C@@H]1C(C(CC(N)=O)N(C(=O)Nc2ccccc2C)C(CC(N)=O)C2O[C@@H]3OC(C)(C)O[C@@H]3[C@H]2OC)O[C@H]2OC(C)(C)O[C@H]21` (stereo not given in full), in the data set with Brugia malayi [2], the outcome was inactive. Further, in the data set with Brugia malayi [4], the inhibition at 100 µM was found to be 20%.
As to `CCOC(=O)CC(NC(=O)[C@@H]1CCCN1C(=O)OCC1c2ccccc2-c2ccccc21)C1O[C@H]2OC(C)(C)O[C@H]2[C@@H]1OC` (stereo not given in full), the Activity in data set [1] is 197%. Moreover, in the data set on Brugia malayi [2], the result was Active. The inhibition at 100 µM with Brugia malayi [4] worked out at 37%.
With `CC1(C)O[C@H]2O[C@H](C3CC(=O)N(Cc4ccccc4)C(=O)N3Cc3ccccc3)[C@H](OCc3ccccc3)[C@H]2O1` (stereo not given in full), the Activity in data set [1] came out at 13%. In the data set with Brugia malayi [2], the result was inactive. Besides, the inhibition at 100 µM with Brugia malayi [4] was 65%.
`CO[C@@H]1[C@H]2OC(C)(C)O[C@H]2O[C@@H]1C1CC(=O)N(c2ccc(Cl)cc2)C(=O)N1` (stereo not given in full): the Activity in data set [1] came to 24%. Moreover, the outcome with Brugia malayi [2] was inactive. Besides, the inhibition at 100 µM with Brugia malayi [4] is 52%.
`CCOC(=O)CC(C1O[C@H]2OC(C)(C)O[C@H]2[C@@H]1OC)N(Cc1ccccc1O)C(=O)Nc1cccc(C(C)=O)c1` (stereo not given in full): the result in the data set on Brugia malayi [2] was Active. Besides, the inhibition at 100 µM with Brugia malayi [4] was 41%. This compound displayed an inhibition at 10 min, 100 µM in data set [3] of 23%.
Regarding `CO[C@@H]1[C@H]2OC(C)(C)O[C@H]2O[C@@H]1C1CC(=O)N(c2ccc(Br)cc2)C(=O)N1c1ccco1` (stereo not given in full), in the data set with Brugia malayi [2], the outcome was inactive. The inhibition at 100 µM in the data set on Brugia malayi [4] came to 32%. For the same compound, the inhibition at 10 min, 100 µM in data set [3] is 32%.
On to `COC(=O)CC(NC(=S)Nc1ccccc1)C1O[C@H]2OC(C)(C)O[C@H]2[C@@H]1OCc1ccccc1` (stereo not given in full), for which the outcome in the data set with Brugia malayi [2] was Active. Moreover, in the data set with Brugia malayi [4], the inhibition at 100 µM worked out at 69%.
In the case of `COc1ccc(CN2C(=O)N(c3cccc(C#N)c3)C(=O)CC2[C@H]2O[C@@H]3OC(C)(C)O[C@@H]3[C@H]2OC)cc1` (stereo not given in full), the outcome in the data set on Brugia malayi [2] was inactive. Further, the inhibition at 100 µM with Brugia malayi [4] came to 34%. Besides, the inhibition at 10 min, 100 µM in data set [3] was found to be 20%.
In data set [1], `CCCCN(C(=S)Nc1ccccc1Cl)C(CC(=O)OCC)C1O[C@H]2OC(C)(C)O[C@H]2[C@@H]1OC` (stereo not given in full) yielded an Activity of 38%. For the same compound, the result in the data set with Brugia malayi [2] was Active.
As to `CCCCCCCCCCCCCCCCNC(CC(=O)NO)C1O[C@H]2OC(C)(C)O[C@H]2[C@@H]1OC` (stereo not given in full), the Activity in data set [1] is 214%. In the data set on Brugia malayi [2], the outcome was Active. For the same compound, the inhibition at 100 µM in the data set with Brugia malayi [4] worked out at 92%.
`CCOC(=O)CC(NC(=O)[C@@H]1CCCN1)C1O[C@H]2OC(C)(C)O[C@H]2[C@@H]1OC` (stereo not given in full) had an Activity in data set [1] of 28%. Further, the outcome in the data set on Brugia malayi [2] was Active.
In the case of `CCOC(=O)CC(NCCCCCCCCCCCCNC(CC(=O)OCC)C1O[C@@H]2OC(C)(C)O[C@@H]2[C@H]1OCc1ccccc1)C1O[C@H]2OC(C)(C)O[C@H]2[C@@H]1OCc1ccccc1` (stereo not given in full), the result in the data set with Brugia malayi [2] was inactive.
As to `CCOc1ccc(N2C(=O)CC([C@H]3O[C@@H]4OC(C)(C)O[C@@H]4[C@H]3OC)N(Cc3ccccc3)C2=O)cc1` (stereo not given in full), in the data set with Brugia malayi [2], the outcome was inactive. Moreover, the inhibition at 100 µM in the data set on Brugia malayi [4] amounted to 50%.
`COc1ccc(CN2C(=O)N(c3cc(Cl)cc(Cl)c3)C(=O)CC2[C@H]2O[C@@H]3OC(C)(C)O[C@@H]3[C@H]2OCc2ccccc2)cc1` (stereo not given in full) displayed an Activity in data set [1] of 12%. In addition, the result in the data set with Brugia malayi [2] was inactive. In addition, the inhibition at 100 µM in the data set with Brugia malayi [4] was found to be 92%.
Regarding `CC(=O)c1ccc(N2C(=O)CC([C@H]3O[C@@H]4OC(C)(C)O[C@@H]4[C@H]3OCc3ccccc3)NC2=O)cc1` (stereo not given in full), the Activity in data set [1] came out at 19%. Besides, the result in the data set with Brugia malayi [2] was Active. Moreover, the inhibition at 100 µM in the data set on Brugia malayi [4] was determined as 27%.
Regarding `CCOc1ccc(N2C(=O)CC([C@H]3O[C@@H]4OC(C)(C)O[C@@H]4[C@H]3OC)N(c3ccco3)C2=O)cc1` (stereo not given in full), in the data set on Brugia malayi [2], the outcome was inactive. For the same compound, the inhibition at 100 µM with Brugia malayi [4] was determined as 34%. For the same compound, in data set [3], the inhibition at 10 min, 100 µM is 26%.
For the compound `CO[C@@H]1C(C(CC(N)=O)NC(=O)Nc2ccc(C)c(Cl)c2)O[C@H]2OC(C)(C)O[C@H]21` (stereo not given in full), the outcome with Brugia malayi [2] was inactive.
Regarding `COc1ccc(N(C(=O)NCc2ccccc2)[C@@H](CC(=O)O)C(=O)NC(CC(N)=O)C2O[C@H]3OC(C)(C)O[C@H]3[C@@H]2OC)cc1` (stereo not given in full), the outcome in the data set on Brugia malayi [2] was inactive.
On the same count and under the same terms, under `CC[C@H](C)[C@@H](C(=O)NC(CC(N)=O)C1O[C@H]2OC(C)(C)O[C@H]2[C@@H]1OC)N(C(=O)Nc1ccccc1C)c1ccco1` (stereo not given in full) stands “Active”.
With `CC1(C)O[C@@H]2OC(CNCCCCCCCCCCCCNCC3O[C@@H]4OC(C)(C)O[C@@H]4[C@H]3OCc3ccccc3)[C@@H](OCc3ccccc3)[C@@H]2O1` (stereo not given in full), the outcome in the data set on Brugia malayi [2] was Active. The inhibition at 100 µM in the data set with Brugia malayi [4] stood at 94%.
`COc1ccc(CN2C(=O)N(c3cccc(C(C)=O)c3)C(=O)CC2[C@H]2O[C@@H]3OC(C)(C)O[C@@H]3[C@H]2OCc2ccccc2)cc1` (stereo not given in full) registered an Activity in data set [1] of 13%. Moreover, the outcome in the data set with Brugia malayi [2] was inactive.
For the compound `CO[C@@H]1[C@H]2OC(C)(C)O[C@H]2O[C@@H]1C1CC(=O)N(c2cccc(C(C)=O)c2)C(=O)N1Cc1ccc(Br)cc1` (stereo not given in full), the outcome in the data set on Brugia malayi [2] was inactive. Moreover, the inhibition at 10 min, 100 µM in data set [3] came out at 27%.
